In patent publication US6989385B2, “Pyrazole compounds useful as protein kinase inhibitors” (Vertex Pharmaceuticals Incorporated, priority 2000, dated 2006) one finds Ki data, which are given here for one molecule.

In general, Ki refers to the equilibrium dissociation constant of an inhibitor or competing ligand from its target. A low value points to a stronger hold on the target.

In this assay the target is T1, Aurora-2 (Homo sapiens, UniProt O14965).
T1 sequence (O14965 1-403): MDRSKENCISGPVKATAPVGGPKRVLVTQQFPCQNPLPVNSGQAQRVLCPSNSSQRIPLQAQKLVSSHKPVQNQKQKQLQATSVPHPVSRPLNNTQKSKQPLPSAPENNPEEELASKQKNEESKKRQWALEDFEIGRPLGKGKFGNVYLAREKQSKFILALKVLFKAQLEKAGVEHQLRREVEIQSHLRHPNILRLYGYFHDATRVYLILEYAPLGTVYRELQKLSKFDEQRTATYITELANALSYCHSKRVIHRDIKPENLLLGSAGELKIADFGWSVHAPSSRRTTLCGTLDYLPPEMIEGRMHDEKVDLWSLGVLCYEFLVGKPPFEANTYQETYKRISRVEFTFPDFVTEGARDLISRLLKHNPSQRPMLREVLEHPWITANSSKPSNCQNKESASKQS
Kind of assay: Ki determination for the inhibition of Aurora-2 (coupled enzyme assay). Type of assay: biochemical. As to conditions: 70 nM Aurora-2, 30° C. The procedure:
To an assay stock buffer solution containing 0.1 M HEPES 7.5, 10 mM MgCl2, 1 mM DTT, 25 mM NaCl, 2.5 mM phosphoenolpyruvate, […], 30 mg/ml pyruvate kinase, 10 mg/ml lactate dehydrogenase, 40 mM ATP, and 800 μM peptide (LRRASLG, American Peptide, Sunnyvale, Calif.) was added a DMSO solution of a compound of the present invention to a final concentration of 30 μM. The resulting mixture was incubated at 30° C. for 10 min. The reaction was initiated by the addition of 10 μL of Aurora-2 stock solution to give a final concentration of 70 nM in the assay. […] The Ki values were determined from the rate data as a function of inhibitor concentration.

Consider `Cc1cc(Nc2cc(C)[nH]n2)nc(C(C)(C)c2ccccc2)n1` [IIId-20], for which the Ki fell in the range of 0.1 to 1 µM.
